Binding % data for 22 molecules are collected here from patent publication US10111874B2, “Combination therapies for treatment of cancer” (Araxes Pharma LLC, priority 2014, dated 2018).

T1 sequence (P01116 1-169 isoform P01116-2 G12C): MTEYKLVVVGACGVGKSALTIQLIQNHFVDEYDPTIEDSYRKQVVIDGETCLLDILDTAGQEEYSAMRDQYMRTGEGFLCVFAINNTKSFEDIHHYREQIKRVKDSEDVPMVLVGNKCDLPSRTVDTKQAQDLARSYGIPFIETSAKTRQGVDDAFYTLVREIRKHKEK

The test concerns the target T1, KRAS G12C 1-169, his-tagged protein, GDP-loaded (Homo sapiens, UniProt P01116, G12C).
T1 construct: KRAS G12C 1-169, his-tagged protein, GDP-loaded
The experiment in a line: Biochemical assay: covalent binding to KRAS G12C analyzed by mass spectrometry. Also: test concentration or dose not given here. The conditions noted are these: determined at 24 hrs.
`C=CC(=O)N1CC(N2CCN(C(=O)c3cc(-c4cc(Cl)ccc4Cl)c(Cl)cc3OC)CC2)C1` [II-13, 1-(3-(4-(2′,5′,6-trichloro-4-methoxybiphenyl-carbonyl)piperazin-1-yl)azetidin-1-yl)prop-2-en-1-one]: the Binding % entry is “++ (++indicates binding activity greater than 15% and up to 25%)”.

`C=CC(=O)N1CC(N2CCN(C(=O)CNc3cc(Cl)c(F)cc3O)CC2)C1` [II-14, 1-(3-(4-(2-(5-chloro-4-fluoro-2-hydroxyphenyl-amino)acetyl)piperazin-1-yl)azetidin-1-yl)prop-2-en-1-one]: the Binding % entry is “+++ (+++indicates binding activity greater than 25% and up to 50%)”.

Consider `C=CC(=O)N1CC(N2CCC(C(=O)NCc3cc(Cl)c(Cl)cc3O)CC2)C1` [II-17, 1-(1-acryloylazetidin-3-yl)-N-(4,5-dichloro-2-hydroxybenzyl)piperidine-4-carboxamide], for which the Binding % entry is “++ (++indicates binding activity greater than 15% and up to 25%)”.

Turning to `C=CC(=O)N1CC(N2CCN(C(=O)CNc3cc(Br)c(Cl)cc3O)CC2)C1` [II-18, 1-(3-(4-(2-(5-bromo-4-chloro-2-hydroxyphenyl-amino)acetyl)piperazin-1-yl)azetidin-1-yl)prop-2-en-1-one], the Binding % entry is “++++ (++++indicates binding activity greater than 50%)”.

Turning to `C=CC(=O)N1CC(N2CCN(C(=O)CNc3cc(Cl)ccc3O)CC2)C1` [II-19, 1-(3-(4-(2-(5-chloro-2-hydroxyphenyl-amino)acetyl)-piperazin-1-yl)azetidin-1-yl)prop-2-en-1-one], the Binding % entry is “+++ (+++indicates binding activity greater than 25% and up to 50%)”.

For the molecule `CN(C)C/C=C/C(=O)N1CC(N2CCN(C(=O)CNc3cc(Cl)c(Cl)cc3O)CC2)C1` [II-20, (E)-1-(3-(4-((4,5-dichloro-2-hydroxyphenyl)-glycyl)piperazin-1-yl)azetidin-1-yl)-4-(dimethylamino)but-2-en-1-one], the Binding % entry is “++ (++indicates binding activity greater than 15% and up to 25%)”.

As to `C=CC(=O)N1CC(N2CCN(C(=O)CCn3c(=O)[nH]c4cc(Cl)c(Cl)cc43)CC2)C1` [II-21, 1-(3-(4-(1-acryloylazetidin-3-yl)piperazin-1-yl)-3-oxopropyl)-5,6-dichloro-1H-benzo[d]imidazol-2(3H)-one], the Binding % result is recorded as “+ (+indicates binding activity from 5% to 15%)”.

On to `C=CC(=O)N1CC(N2CCN(C(=O)CNc3cc(Cl)c(Cl)cc3Cl)CC2)C1` [II-22, 1-(3-(4-(2-(2,4,5-trichlorophenyl-amino)acetyl)-piperazin-1-yl)azetidin-1-yl)prop-2-en-1-one], for which the Binding % result is given as “+ (+indicates binding activity from 5% to 15%)”.

With `C=CC(=O)N1CC(N2CCN(C(=O)CNc3cc(O)c(Cl)cc3Cl)CC2)C1` [II-23, 1-(3-(4-(2-(2,4-dichloro-5-hydroxyphenyl-amino)acetyl)piperazin-1-yl)azetidin-1-yl)prop-2-en-1-one], the Binding % entry is recorded as “+ (+indicates binding activity from 5% to 15%)”.

Regarding `C=CC(=O)N1CC(N2CCN(C(=O)Cc3cccc4ccccc34)CC2)C1` [II-24, 1-(3-(4-(2-(naphthalen-1-yl)acetyl)piperazin-1-yl)azetidin-1-yl)prop-2-en-1-one], the Binding % result was “+ (+indicates binding activity from 5% to 15%)”.

For `C=CC(=O)N1CC(N2CCN(C(=O)Cc3c[nH]c4ccccc34)CC2)C1` [II-25, 1-(3-(4-(2-(1H-indol-3-yl)acetyl)piperazin-1-yl)azetidin-1-yl)prop-2-en-1-one], the Binding % result is “+ (+indicates binding activity from 5% to 15%)”.

Regarding `C=CC(=O)N1CC(N2CCN(C(=O)CNc3cc(Cl)c(Cl)cc3C(F)(F)F)CC2)C1` [II-26, 1-(3-(4-(2-(4,5-dichloro-2-(trifluoromethyl)-phenylamino)acetyl)-piperazin-1-yl)azetidin-1-yl)prop-2-en-1-one], the Binding % result is reported as “+ (+indicates binding activity from 5% to 15%)”.

Regarding `C=CC(=O)N1CC(N2CCN(C(=O)CNc3cc(O)c(Cl)c(Cl)c3)CC2)C1` [II-27, 1-(3-(4-(2-(3,4-dichloro-5-hydroxyphenyl-amino)acetyl)piperazin-1-yl)azetidin-1-yl)prop-2-en-1-one], the Binding % result was “++ (++indicates binding activity greater than 15% and up to 25%)”.

`C=CC(=O)N1CC(N2CCN(C(=O)CNc3cc(Cl)c(Br)cc3O)CC2)C1` [II-28, 1-(3-(4-(2-(4-bromo-5-chloro-2-hydroxyphenylamino)-cetyl)piperazin-1-yl)azetidin-1-yl)prop-2-en-1-one]: the Binding % result is “+++ (+++indicates binding activity greater than 25% and up to 50%)”.

In the case of `C=CC(=O)N1CC(N2CCN(C(=O)Cn3ccc4ccccc43)CC2)C1` [II-29, 1-(3-(4-(2-(1H-indol-1-yl)acetyl)piperazin-1-yl)azetidin-1-yl)prop-2-en-1-one], the Binding % entry is “+ (+indicates binding activity from 5% to 15%)”.

As to `C=CC(=O)N1CC(N2CCN(C(=O)Cn3ccc4cc(Cl)c(Cl)cc43)CC2)C1` [II-30, 1-(3-(4-(2-(5,6-dichloro-1H-indol-1-yl)acetyl)piperazin-1-yl)azetidin-1-yl)prop-2-en-1-one], the Binding % entry is “+ (+indicates binding activity from 5% to 15%)”.

With `C=CC(=O)N1CC(N2CCN(C(=O)C(C)Nc3cc(Cl)c(Cl)cc3O)CC2)C1` (stereo not shown) [II-31, 1-(3-(4-(2-(4,5-dichloro-2-hydroxyphenylamino)-propanoyl)-piperazin-1-yl)azetidin-1-yl)prop-2-en-1-one], the Binding % entry was “++++ (++++indicates binding activity greater than 50%)”.

With `C=CC(=O)N1CC(N2CCN(C(=O)CNc3cc(C)c(Cl)cc3O)CC2)C1` [II-32, 1-(3-(4-(2-(4-chloro-2-hydroxy-5-methylphenylamino)-acetyl)piperazin-1-yl)azetidin-1-yl)prop-2-en-1-one], the Binding % result is given as “++++ (++++indicates binding activity greater than 50%)”.

In the case of `C=CC(=O)N1CC(N2CCN(C(=O)CNc3cc(O)cc(Cl)c3)CC2)C1` [II-33, 1-(3-(4-(2-(3-chloro-5-hydroxyphenylamino)-acetyl)piperazin-1-yl)azetidin-1-yl)prop-2-en-1-one], the Binding % result is listed as “+ (+indicates binding activity from 5% to 15%)”.

`C=CC(=O)N1CC(N2CCN(C(=O)CNc3cc(S(C)(=O)=O)ccc3O)CC2)C1` [II-34, 1-(3-(4-(2-(2-hydroxy-5-(methylsulfonyl)-phenylamino)acetyl)-piperazin-1-yl)azetidin-1-yl)prop-2-en-1-one]: the Binding % entry is “+ (+indicates binding activity from 5% to 15%)”.

For the molecule `C=CC(=O)N1CC(N2CCN(C(=O)CNc3cc(C4CC4)c(Cl)cc3O)CC2)C1` [II-35, 1-(3-(4-(2-(4-chloro-5-cyclopropyl-2-hydroxyphenyl-amino)acetyl)piperazin-1-yl)azetidin-1-yl)prop-2-en-1-one], the Binding % entry is “++++ (++++indicates binding activity greater than 50%)”.

Take `C=CC(=O)NC1CN(C2CN(C(=O)CNc3cc(Br)c(Cl)cc3O)C2)C1` [II-36, N-(1′-(2-(5-bromo-4-chloro-2-hydroxyphenylamino)-acetyl)-1,3′-biazetidin-3-yl)acrylamide]: the Binding % result is reported as “++++ (++++indicates binding activity greater than 50%)”.
